Experimental data taken from ChEMBL document CHEMBL3286222, “Synthesis and antiproliferative studies of 5-aryl-2-(3-thienylamino)-1,3,4-thiadiazoles” (Bioorg Med Chem Lett, 2014).
pIC50: −log10 of the molar value.

Key:
[1] = Cytotoxicity against human U373 cells assessed as growth inhibition after 72 hrs by MTT colorimetric assay; assay type: functional, cell-based, U-373MG ATCC; settings: U373 MG
MCF7 [2] = test: Cytotoxicity against human MCF7 cells assessed as growth inhibition after 72 hrs by MTT colorimetric assay; assay type: functional, cell-based; settings: MCF7, 72 h
[3] = Cytotoxicity against human Hs683 cells assessed as growth inhibition after 72 hrs by MTT colorimetric assay; assay type: functional, cell-based; settings: Hs 683, 72 h
[4] = Cytotoxicity against mouse B16F10 cells assessed as growth inhibition after 72 hrs by MTT colorimetric assay; assay type: functional, cell-based; settings: B16-F10, 72 h
A549 [5] = test: Cytotoxicity against human A549 cells assessed as growth inhibition after 72 hrs by MTT colorimetric assay; assay type: functional, cell-based; settings: A549, 72 h
SK-MEL-28 [6] = test: Cytotoxicity against human SK-MEL-28 cells assessed as growth inhibition after 72 hrs by MTT colorimetric assay; assay type: functional, cell-based; settings: SK-MEL-28, 72 h
A549 [7] = test: Cytotoxicity against human A549 cells assessed as cell viability at 0.5 uM after 72 hrs by MTT colorimetric assay; assay type: functional; settings: A549, 72 h, read-out: Activity
MCF7 [8] = test: Cytotoxicity against human MCF7 cells assessed as cell viability at 50 uM after 72 hrs by MTT colorimetric assay; assay type: functional; settings: MCF7, 72 h, read-out: Activity
[9] = Cytotoxicity against mouse B16F10 cells assessed as cell viability at 5 uM after 72 hrs by MTT colorimetric assay; assay type: functional; settings: B16-F10, 72 h, read-out: Activity
[10] = Cytotoxicity against human Hs683 cells assessed as cell viability at 5 uM after 72 hrs by MTT colorimetric assay; assay type: functional; settings: Hs 683, 72 h, read-out: Activity
A549 [11] = test: Cytotoxicity against human A549 cells assessed as cell viability at 100 uM after 72 hrs by MTT colorimetric assay; assay type: functional; settings: A549, 72 h, read-out: Activity
[12] = Cytotoxicity against mouse B16F10 cells assessed as cell viability at 0.5 uM after 72 hrs by MTT colorimetric assay; assay type: functional; settings: B16-F10, 72 h, read-out: Activity
[13] = Cytotoxicity against mouse B16F10 cells assessed as cell viability at 50 uM after 72 hrs by MTT colorimetric assay; assay type: functional; settings: B16-F10, 72 h, read-out: Activity
MCF7 [14] = test: Cytotoxicity against human MCF7 cells assessed as cell viability at 100 uM after 72 hrs by MTT colorimetric assay; assay type: functional; settings: MCF7, 72 h, read-out: Activity
[15] = Cytotoxicity against human Hs683 cells assessed as cell viability at 50 uM after 72 hrs by MTT colorimetric assay; assay type: functional; settings: Hs 683, 72 h, read-out: Activity
[16] = Cytotoxicity against human U373 cells assessed as cell viability at 0.5 uM after 72 hrs by MTT colorimetric assay; assay type: functional, U-373MG ATCC; settings: U373 MG, read-out: Activity
[17] = Cytotoxicity against mouse B16F10 cells assessed as cell viability at 1 uM after 72 hrs by MTT colorimetric assay; assay type: functional; settings: B16-F10, 72 h, read-out: Activity
[18] = Cytotoxicity against human Hs683 cells assessed as cell viability at 1 uM after 72 hrs by MTT colorimetric assay; assay type: functional; settings: Hs 683, 72 h, read-out: Activity
[19] = Cytotoxicity against human Hs683 cells assessed as cell viability at 0.05 uM after 72 hrs by MTT colorimetric assay; assay type: functional; settings: Hs 683, 72 h, read-out: Activity
MCF7 [20] = test: Cytotoxicity against human MCF7 cells assessed as cell viability at 0.5 uM after 72 hrs by MTT colorimetric assay; assay type: functional; settings: MCF7, 72 h, read-out: Activity
SK-MEL-28 [21] = test: Cytotoxicity against human SK-MEL-28 cells assessed as cell viability at 0.5 uM after 72 hrs by MTT colorimetric assay; assay type: functional; settings: SK-MEL-28, 72 h, read-out: Activity
[22] = Cytotoxicity against human NHLF cells assessed as growth inhibition after 72 hrs by MTT colorimetric assay; assay type: cell-based
NHDF = test: Cytotoxicity against human NHDF cells assessed as growth inhibition after 72 hrs by MTT colorimetric assay; assay type: cell-based
SK-MEL-28 [23] = test: Cytotoxicity against human SK-MEL-28 cells assessed as cell viability at 100 uM after 72 hrs by MTT colorimetric assay; assay type: functional; settings: SK-MEL-28, 72 h, read-out: Activity
[24] = Cytotoxicity against human Hs683 cells assessed as cell viability at 0.5 uM after 72 hrs by MTT colorimetric assay; assay type: functional; settings: Hs 683, 72 h, read-out: Activity
[25] = Cytotoxicity against human U373 cells assessed as cell viability at 10 uM after 72 hrs by MTT colorimetric assay; assay type: functional, U-373MG ATCC; settings: U373 MG, read-out: Activity
MCF7 [26] = test: Cytotoxicity against human MCF7 cells assessed as cell viability at 5 uM after 72 hrs by MTT colorimetric assay; assay type: functional; settings: MCF7, 72 h, read-out: Activity
A549 [27] = test: Cytotoxicity against human A549 cells assessed as cell viability at 10 uM after 72 hrs by MTT colorimetric assay; assay type: functional; settings: A549, 72 h, read-out: Activity
A549 [28] = test: Cytotoxicity against human A549 cells assessed as cell viability at 50 uM after 72 hrs by MTT colorimetric assay; assay type: functional; settings: A549, 72 h, read-out: Activity
[29] = Cytotoxicity against human Hs683 cells assessed as cell viability at 100 uM after 72 hrs by MTT colorimetric assay; assay type: functional; settings: Hs 683, 72 h, read-out: Activity

Compound	pIC50 [1]	pIC50 (MCF7 [2])	pIC50 [3]	pIC50 [4]	pIC50 (A549 [5])	pIC50 (SK-MEL-28 [6])	other results
COc1cc(OC)cc(C(=O)NNC(=S)Nc2csc(-c3ccccc3)c2)c1	4.40	4.42	4.38	4.52	4.41	4.43	–
COc1ccc(-c2nnc(Nc3csc(-c4ccc(C)cc4)c3)s2)cc1OC	< 4.00	–	–	–	–	< 4.00	viability at 0.5 µM (A549 [7]): < 50%; viability at 50 µM (MCF7 [8]): < 50%; viability at 5 µM [9]: < 50%; viability at 5 µM [10]: < 50%
COc1cc(-c2nnc(Nc3csc(-c4ccccc4)c3)s2)cc(OC)c1OC	< 4.00	< 4.00	–	–	–	< 4.00	viability at 100 µM (A549 [11]): < 50%; viability at 0.5 µM [12]: < 50%; viability at 5 µM [10]: < 50%
COc1ccc(-c2nnc(Nc3csc(-c4ccccc4)c3)s2)cc1	4.04	4.22	5.30	5.22	5.10	< 4.00	–
COc1cc(OC)cc(-c2nnc(Nc3csc(-c4ccccc4)c3)s2)c1	4.04	–	–	–	–	< 4.00	viability at 100 µM (A549 [11]): < 50%; viability at 50 µM [13]: < 50%; viability at 100 µM (MCF7 [14]): < 50%; viability at 50 µM [15]: < 50%
Cc1ccc(C(=O)NNC(=S)Nc2csc(-c3ccc(C)cc3)c2)cc1	4.42	4.54	4.40	4.70	4.43	4.36	–
Cc1ccc(-c2cc(NC(=S)NNC(=O)c3ccc(O)cc3)cs2)cc1	4.19	4.38	4.31	4.32	4.36	4.34	–
COc1cc(C(=O)NNC(=S)Nc2csc(-c3ccccc3)c2)cc(OC)c1OC	4.36	4.37	4.38	4.49	4.41	4.26	–
O=C(NNC(=S)Nc1csc(-c2ccccc2)c1)c1ccc(O)cc1	< 4.00	4.11	4.10	4.40	4.12	4.15	–
COc1ccc(-c2cc(NC(=S)NNC(=O)c3ccc(C)cc3)cs2)cc1	< 4.00	4.40	4.52	5.15	4.46	4.66	–
Oc1ccc(-c2nnc(Nc3csc(-c4ccccc4)c3)s2)cc1	4.24	4.62	4.59	5.10	4.82	4.24	–
Cc1ccc(-c2cc(Nc3nnc(-c4ccc(C)cc4)s3)cs2)cc1	–	–	–	–	–	< 4.00	viability at 0.5 µM [16]: < 50%; viability at 100 µM (MCF7 [14]): < 50%; viability at 0.5 µM (A549 [7]): < 50%; viability at 1 µM [17]: < 50%; viability at 1 µM [18]: < 50%
COc1cc(-c2nnc(Nc3csc(-c4ccc(C)cc4)c3)s2)cc(OC)c1OC	–	–	–	4.92	–	–	viability at 0.5 µM [16]: < 50%; viability at 0.05 µM [19]: < 50%; viability at 0.5 µM (A549 [7]): < 50%; viability at 0.5 µM (MCF7 [20]): < 50%; viability at 0.5 µM (SK-MEL-28 [21]): < 50%
Cc1ccc(C(=O)NNC(=S)Nc2csc(-c3ccccc3)c2)cc1	4.21	4.52	4.43	4.62	4.40	4.40	–
COc1cc(OC)cc(C(=O)NNC(=S)Nc2csc(-c3ccc(C)cc3)c2)c1	4.39	4.59	4.43	4.89	4.49	4.42	–
COc1ccc(C(=O)NNC(=S)Nc2csc(-c3ccccc3)c2)cc1	4.39	4.49	4.46	4.48	4.44	4.52	–
COc1ccc(C(=O)NNC(=S)Nc2csc(-c3ccc(C)cc3)c2)cc1OC	4.33	4.96	4.41	5.15	4.44	4.72	–
COc1ccc(C(=O)NNC(=S)Nc2csc(-c3ccc(C)cc3)c2)cc1	4.72	5.30	4.92	5.05	4.96	4.96	pIC50 [22]: 4.55; pIC50 (NHDF): 4.66
COc1ccc(-c2nnc(Nc3csc(-c4ccc(C)cc4)c3)s2)cc1	–	–	–	–	–	–	viability at 0.5 µM [16]: < 50%; viability at 100 µM (SK-MEL-28 [23]): < 50%; viability at 0.5 µM (A549 [7]): < 50%; viability at 0.5 µM [24]: < 50%; viability at 0.5 µM (MCF7 [20]): < 50%; viability at 1 µM [17]: < 50%
COc1ccc(C(=O)NNC(=S)Nc2csc(-c3ccccc3)c2)cc1OC	4.23	4.68	4.66	5.05	4.70	4.55	–
COc1cc(OC)cc(-c2nnc(Nc3csc(-c4ccc(C)cc4)c3)s2)c1	–	–	–	–	–	< 4.00	viability at 10 µM [25]: < 50%; viability at 5 µM (MCF7 [26]): < 50%; viability at 1 µM [17]: < 50%; viability at 5 µM [10]: < 50%; viability at 10 µM (A549 [27]): < 50%
Cc1ccc(-c2cc(Nc3nnc(-c4ccc(O)cc4)s3)cs2)cc1	5.10	5.10	4.77	5.22	5.22	4.85	–
Cc1ccc(-c2nnc(Nc3csc(-c4ccccc4)c3)s2)cc1	< 4.00	4.47	–	5.40	–	< 4.00	viability at 50 µM (A549 [28]): < 50%; viability at 5 µM [10]: < 50%
COc1cc(C(=O)NNC(=S)Nc2csc(-c3ccc(C)cc3)c2)cc(OC)c1OC	4.33	4.51	4.38	4.89	4.41	4.38	–
COc1ccc(-c2nnc(Nc3csc(-c4ccccc4)c3)s2)cc1OC	< 4.00	4.04	–	–	< 4.00	< 4.00	viability at 0.5 µM [12]: < 50%; viability at 100 µM [29]: < 50%
